We go through two compounds from US9314485B2, “Use of PI3K M-TOR and AKT inhibitors to induce FOXP3 expression and generate regulatory T cells” (Medical Research Council, priority 2006, dated 2016).

By IC50 is commonly meant the concentration at which inhibition is half-maximal.

Bounds are passed on as bounds.

The target in assay [1] is PI4P5KIα (Homo sapiens, UniProt Q99755). The settings on record: first PI4P5KIα line; unit inferred; read-out: Specificity for PI4P5KIα (IC50 determined in vitro); cited from earlier work.
A further assay addresses PI4KIIα (Homo sapiens, UniProt Q9BTU6). The following applies: unit inferred; read-out: Specificity for PI4KIIα (IC50 determined in vitro); cited from earlier work.
A further assay addresses PI4KIIIα (Homo sapiens, UniProt P42356). The following applies: unit inferred; read-out: Specificity for PI4KIIIα (IC50 determined in vitro); cited from earlier work.
In another assay the target is T1, PI5P4KIIβ (Homo sapiens, UniProt P78356).
T1 sequence (P78356 1-416): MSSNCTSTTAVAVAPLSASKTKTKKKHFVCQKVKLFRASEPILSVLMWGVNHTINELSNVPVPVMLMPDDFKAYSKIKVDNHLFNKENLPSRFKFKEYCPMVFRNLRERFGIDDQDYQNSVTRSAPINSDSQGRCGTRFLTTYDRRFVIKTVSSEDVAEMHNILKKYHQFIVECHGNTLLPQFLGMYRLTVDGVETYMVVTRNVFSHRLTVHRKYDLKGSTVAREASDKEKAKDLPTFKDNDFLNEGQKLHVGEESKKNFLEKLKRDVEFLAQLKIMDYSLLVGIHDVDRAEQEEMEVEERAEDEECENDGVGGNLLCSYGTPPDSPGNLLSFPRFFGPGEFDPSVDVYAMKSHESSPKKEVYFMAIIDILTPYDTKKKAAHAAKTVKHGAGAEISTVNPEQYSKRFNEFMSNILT
The following applies: unit inferred; read-out: Specificity for PI5P4KIIβ (IC50 determined in vitro); cited from earlier work.

Another assay has as its target PI3KC2β (Homo sapiens, UniProt O00750). The following applies: unit inferred; read-out: Specificity for PI3KC2β (IC50 determined in vitro); cited from earlier work.
Another assay concerns the target PI3KC2α (Homo sapiens, UniProt O00443). The following applies: unit inferred; read-out: Specificity for PI3KC2α (IC50 determined in vitro); cited from earlier work.
A further assay has as its target ATR (Homo sapiens, UniProt Q13535). The settings on record: unit inferred; read-out: Specificity for ATR (IC50 determined in vitro); cited from earlier work.
Assay [2] deals with PI4P5KIα. The settings on record: second PI4P5KIα line; unit inferred; read-out: Specificity for PI4P5KIα (IC50 determined in vitro); cited from earlier work.
The next assay addresses hsVPS34 (Homo sapiens, UniProt Q8NEB9). The settings on record: unit inferred; read-out: Specificity for hsVPS34 (IC50 determined in vitro); cited from earlier work.
The next assay deals with PI4KIIIβ (Homo sapiens, UniProt Q9UBF8). The following applies: unit inferred; read-out: Specificity for PI4KIIIβ (IC50 determined in vitro); cited from earlier work.
The target in a further assay is DNA-PK (Homo sapiens, UniProt P78527). The settings on record: unit inferred; read-out: Specificity for DNA-PK (IC50 determined in vitro); cited from earlier work.
A further assay addresses ATM (Homo sapiens, UniProt Q13315). The settings on record: unit inferred; read-out: Specificity for ATM (IC50 determined in vitro); cited from earlier work.
The next assay concerns the target mTORC1 (Homo sapiens, UniProt P42345). The following applies: unit inferred; read-out: Specificity for mTORC1 (IC50 determined in vitro); cited from earlier work.
For assay [3], the system named is naive CD62LhiCD4+CD25− LN T cells. The experiment in a line: Foxp3 induction in newly activated naive CD4 T cells (intracellular staining). It counts as cell-based, mouse. The settings on record: for number of cell divisions (CFSE): 24-48 hours after addition at 18 hours; for % Foxp3+ cells, activation with anti-TCR only: no costimulation; for % Foxp3+ cells, activation with anti-TCR only / % Foxp3+ cells, activation with anti-TCR + anti-CD28: average of two experiments; for % Foxp3+ cells, activation with anti-TCR + anti-CD28: with costimulation. Here is the method:
Mouse strains, cell sorting and culture Animal work was carried out according the Animals (Scientific Procedures) Act, UK. Lymph node (LN) cells were stained, analysed and sorted by flow cytometry as described (Cobb et al 2005 J. Exp. Med. 201: 1367-1373). Intracellular staining for Foxp3 protein was done as advised by the manufacturers (eBiosciences.com). The phosphorylation syatus of S6 ribosomal protein was determined using anti pS6 Ser235/236 (Cellsignaling cat.no. 2211, http://www.cellsignal.com) using the eBioscience Foxp3 staining kit and anti rabbit IgG-FITC or IgG-Cy5 (Jackson Immunoresearch). For induction of Foxp3 expression, sorted LN CD4+ CD25− CD62Lhi T cells were cultured at 1-3×10^6/ml with plate bound anti-TCRβ. […] After 18 hours the cells were either left in place for continued TCR stimulation or moved to uncoated wells with the indicated additives. To assess regulatory function, CD4 T cells cultured as indicated were titrated into round bottom wells containing either 1×10^5 CFSE labeled total LN cells or 5×10^4 CFSE labeled CD4^+ CD25^− T cells and 1×10^5 mitomycin-C treated (25 μg/ml, 20 min, 37° C.) T cell depleted splenocytes with the indicated concentrations of anti CD3 (2C11, Pharmingen). CD4 T cell CFSE profiles were recorded between 48 and 72 hours later.
Mice, Cell Sorting and Culture. Animal work was carried out according to the Animals (Scientific Procedures) Act, UK. Lymph node (LN) cells or thymocytes from wild type were stained, analysed and sorted by flow cytometry as described (Thompson et al., 2007 Immunity VoI 26 pp 335-344) from wild type (C57BL/6, BALB/c or C57BL/6×129) mice or from Rag1 deficient H2^b AND TCR transgenic mice. Antigen presenting cells were derived from bone marrow in the presence of GM-CSF and incubated with antigenic peptide. Intracellular staining for Foxp3 protein was done as advised by the manufacturers (eBiosciences.com). The phosphorylation status of S6 ribosomal protein was determined using anti pS6 Ser235/236 (Cell Signaling cat.no. 2211, http://www.cellsignal.com) using the eBioscience Foxp3 staining kit and anti rabbit IgG-FITC or IgG-Cy5 (Jackson ImmunoResearch). […] After 18 hours the cells were either left in place for continued TCR stimulation or moved to uncoated wells with the indicated additives. To assess regulatory function, CD4 T cells cultured as indicated were titrated into round bottom wells containing either 1×10^5 CFSE labeled total LN cells or 5×10^4 CFSE labeled CD4^+CD25^− T cells and 1×10^5 mitomycin-C treated (25 μg/ml, 20 min, 37° C.) T cell depleted splenocytes with the indicated concentrations of anti CD3 (2C11, Pharmingen). CD4 T cell CFSE profiles were recorded between 48 and 72 hours later.

In a further assay the target is PI3KC2γ (Homo sapiens, UniProt O75747). The following applies: unit inferred; read-out: Specificity for PI3KC2γ (IC50 determined in vitro); cited from earlier work.
In a further assay the target is mTORC2 (Homo sapiens, UniProt P42345). The following applies: unit inferred; read-out: Specificity for mTORC2 (IC50 determined in vitro); cited from earlier work.
Another assay relates to S6 ribosomal protein. As to the kind of experiment: S6 ribosomal protein phosphorylation (pS6) by intracellular staining/immunoblot. It counts as cell-based, mouse. The following applies: 18 h activated cells; rapamycin 25 nM, Ly294002 10 g/ml as printed; within one hour. As to the method: Mouse strains, cell sorting and culture Animal work was carried out according the Animals (Scientific Procedures) Act, UK. Lymph node (LN) cells were stained, analysed and sorted by flow cytometry as described (Cobb et al 2005 J. Exp. Med. 201: 1367-1373). Intracellular staining for Foxp3 protein was done as advised by the manufacturers (eBiosciences.com). The phosphorylation syatus of S6 ribosomal protein was determined using anti pS6 Ser235/236 (Cellsignaling cat.no. 2211, http://www.cellsignal.com) using the eBioscience Foxp3 staining kit and anti rabbit IgG-FITC or IgG-Cy5 (Jackson Immunoresearch). […] CD4 T cell CFSE profiles were recorded between 48 and 72 hours later.
To monitor the activity of the PI3K/mTOR axis in response to TCR signaling, TCR signal withdrawal and treatment with rapamycin and Ly294002, we analysed the level of phosphorylated S6 ribosomal protein (pS6), the target of p70 S6 kinase, which is directly regulated by mTOR. […]
Mice, Cell Sorting and Culture. […] Lymph node (LN) cells or thymocytes from wild type were stained, analysed and sorted by flow cytometry as described (Thompson et al., 2007 Immunity VoI 26 pp 335-344) from wild type (C57BL/6, BALB/c or C57BL/6×129) mice or from Rag1 deficient H2^b AND TCR transgenic mice. […] CD4 T cell CFSE profiles were recorded between 48 and 72 hours later.
A general note: In western blotting, separated proteins are transferred to a membrane and probed.

Sequence of hsVPS34 (Q8NEB9 whole entry): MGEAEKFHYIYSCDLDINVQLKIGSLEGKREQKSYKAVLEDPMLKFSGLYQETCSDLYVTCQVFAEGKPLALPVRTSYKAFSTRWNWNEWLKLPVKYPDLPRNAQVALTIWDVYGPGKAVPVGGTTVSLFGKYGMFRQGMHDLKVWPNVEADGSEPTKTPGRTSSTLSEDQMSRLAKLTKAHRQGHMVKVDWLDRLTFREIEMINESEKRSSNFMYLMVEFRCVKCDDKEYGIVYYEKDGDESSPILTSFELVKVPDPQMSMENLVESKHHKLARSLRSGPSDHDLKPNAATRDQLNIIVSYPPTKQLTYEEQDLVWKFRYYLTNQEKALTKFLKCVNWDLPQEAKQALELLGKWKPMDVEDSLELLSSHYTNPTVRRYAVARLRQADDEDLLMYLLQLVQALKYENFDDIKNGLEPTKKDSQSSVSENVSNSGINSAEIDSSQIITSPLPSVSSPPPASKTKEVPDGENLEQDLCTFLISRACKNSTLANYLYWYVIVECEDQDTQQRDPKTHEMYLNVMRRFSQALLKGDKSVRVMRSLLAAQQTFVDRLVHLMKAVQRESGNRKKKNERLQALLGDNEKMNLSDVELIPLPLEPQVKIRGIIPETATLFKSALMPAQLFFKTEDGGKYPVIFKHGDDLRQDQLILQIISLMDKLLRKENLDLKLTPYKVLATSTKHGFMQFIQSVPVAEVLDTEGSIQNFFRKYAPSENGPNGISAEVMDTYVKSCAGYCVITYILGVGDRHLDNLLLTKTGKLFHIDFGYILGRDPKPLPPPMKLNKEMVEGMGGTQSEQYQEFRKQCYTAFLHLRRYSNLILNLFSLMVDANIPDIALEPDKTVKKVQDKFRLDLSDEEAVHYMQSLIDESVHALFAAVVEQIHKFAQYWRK
Sequence of PI3KC2γ (O75747 whole entry, species assumed): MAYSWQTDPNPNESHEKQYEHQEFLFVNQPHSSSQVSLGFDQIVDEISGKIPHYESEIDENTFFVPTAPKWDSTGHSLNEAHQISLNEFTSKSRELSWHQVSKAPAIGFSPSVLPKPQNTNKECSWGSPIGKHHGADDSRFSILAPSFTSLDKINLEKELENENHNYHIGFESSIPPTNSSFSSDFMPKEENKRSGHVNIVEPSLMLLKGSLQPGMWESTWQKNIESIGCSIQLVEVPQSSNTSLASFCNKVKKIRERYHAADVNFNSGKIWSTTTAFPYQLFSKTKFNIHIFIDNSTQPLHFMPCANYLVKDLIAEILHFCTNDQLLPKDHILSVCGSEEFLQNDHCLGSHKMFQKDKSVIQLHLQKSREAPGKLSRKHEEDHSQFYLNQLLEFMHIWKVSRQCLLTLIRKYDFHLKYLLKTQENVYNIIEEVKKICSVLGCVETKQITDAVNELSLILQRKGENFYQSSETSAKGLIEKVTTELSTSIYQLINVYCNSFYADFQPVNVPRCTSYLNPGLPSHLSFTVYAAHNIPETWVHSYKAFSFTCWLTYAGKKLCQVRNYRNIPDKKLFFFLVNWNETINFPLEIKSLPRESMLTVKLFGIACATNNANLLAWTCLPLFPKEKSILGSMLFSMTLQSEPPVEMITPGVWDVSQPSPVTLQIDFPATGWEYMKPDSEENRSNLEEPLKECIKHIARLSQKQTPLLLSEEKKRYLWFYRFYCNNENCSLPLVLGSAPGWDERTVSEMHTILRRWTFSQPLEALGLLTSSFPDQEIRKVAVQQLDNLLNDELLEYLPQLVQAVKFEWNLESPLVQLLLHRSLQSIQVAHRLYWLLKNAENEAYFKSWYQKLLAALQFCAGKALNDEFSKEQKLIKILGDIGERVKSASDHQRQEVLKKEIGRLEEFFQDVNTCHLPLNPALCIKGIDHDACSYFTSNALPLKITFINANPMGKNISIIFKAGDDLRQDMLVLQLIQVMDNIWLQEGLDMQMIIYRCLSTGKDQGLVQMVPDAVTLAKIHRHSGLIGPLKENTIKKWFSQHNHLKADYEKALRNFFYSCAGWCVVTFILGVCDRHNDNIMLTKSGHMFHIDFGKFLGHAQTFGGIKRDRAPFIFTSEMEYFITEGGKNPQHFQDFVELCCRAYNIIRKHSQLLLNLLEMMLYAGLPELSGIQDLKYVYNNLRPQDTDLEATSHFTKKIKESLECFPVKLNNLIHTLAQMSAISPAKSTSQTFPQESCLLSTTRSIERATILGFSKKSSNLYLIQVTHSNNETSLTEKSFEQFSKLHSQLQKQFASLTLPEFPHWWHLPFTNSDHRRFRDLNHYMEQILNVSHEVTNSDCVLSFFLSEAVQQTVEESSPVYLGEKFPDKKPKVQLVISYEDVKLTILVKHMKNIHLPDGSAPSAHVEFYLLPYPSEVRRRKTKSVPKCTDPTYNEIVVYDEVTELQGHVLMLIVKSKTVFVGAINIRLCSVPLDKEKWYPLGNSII
Sequence of PI4KIIIβ (Q9UBF8 whole entry): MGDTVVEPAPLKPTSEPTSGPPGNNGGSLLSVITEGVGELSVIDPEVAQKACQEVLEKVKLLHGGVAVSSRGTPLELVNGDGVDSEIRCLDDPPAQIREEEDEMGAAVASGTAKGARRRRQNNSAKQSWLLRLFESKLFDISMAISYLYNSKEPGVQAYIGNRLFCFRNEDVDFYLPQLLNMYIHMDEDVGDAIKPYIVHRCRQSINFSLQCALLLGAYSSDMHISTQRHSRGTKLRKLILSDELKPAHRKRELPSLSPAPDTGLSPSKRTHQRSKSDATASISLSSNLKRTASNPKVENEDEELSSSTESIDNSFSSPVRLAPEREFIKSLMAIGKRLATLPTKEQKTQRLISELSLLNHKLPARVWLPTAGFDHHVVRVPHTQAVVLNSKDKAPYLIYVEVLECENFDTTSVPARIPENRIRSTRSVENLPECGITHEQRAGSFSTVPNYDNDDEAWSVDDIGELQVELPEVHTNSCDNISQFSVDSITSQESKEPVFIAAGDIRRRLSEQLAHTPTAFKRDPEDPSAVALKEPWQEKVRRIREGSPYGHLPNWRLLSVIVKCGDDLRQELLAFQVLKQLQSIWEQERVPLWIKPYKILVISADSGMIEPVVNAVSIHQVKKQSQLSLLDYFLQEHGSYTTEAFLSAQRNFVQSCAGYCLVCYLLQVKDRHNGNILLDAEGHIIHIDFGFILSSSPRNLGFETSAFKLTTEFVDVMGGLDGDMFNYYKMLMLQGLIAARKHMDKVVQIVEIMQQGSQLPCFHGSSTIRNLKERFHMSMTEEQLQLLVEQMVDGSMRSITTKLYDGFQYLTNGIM
Sequence of PI4P5KIα (Homo sapiens, UniProt Q99755) (Q99755 whole entry): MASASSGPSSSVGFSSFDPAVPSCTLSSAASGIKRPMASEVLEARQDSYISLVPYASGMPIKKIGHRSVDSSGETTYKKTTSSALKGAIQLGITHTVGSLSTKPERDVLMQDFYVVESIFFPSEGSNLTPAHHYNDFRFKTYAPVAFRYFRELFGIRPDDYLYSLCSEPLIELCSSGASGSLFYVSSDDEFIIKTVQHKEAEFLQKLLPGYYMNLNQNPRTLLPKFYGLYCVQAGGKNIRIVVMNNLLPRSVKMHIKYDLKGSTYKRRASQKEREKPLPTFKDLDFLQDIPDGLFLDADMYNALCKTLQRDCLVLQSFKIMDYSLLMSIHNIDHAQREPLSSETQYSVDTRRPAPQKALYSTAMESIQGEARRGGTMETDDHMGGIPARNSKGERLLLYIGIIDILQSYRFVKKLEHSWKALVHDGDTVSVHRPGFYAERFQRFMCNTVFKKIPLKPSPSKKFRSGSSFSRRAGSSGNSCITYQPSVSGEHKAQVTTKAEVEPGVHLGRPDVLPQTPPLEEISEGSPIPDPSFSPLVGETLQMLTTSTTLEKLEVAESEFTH
Sequence of PI4KIIα (Q9BTU6 whole entry): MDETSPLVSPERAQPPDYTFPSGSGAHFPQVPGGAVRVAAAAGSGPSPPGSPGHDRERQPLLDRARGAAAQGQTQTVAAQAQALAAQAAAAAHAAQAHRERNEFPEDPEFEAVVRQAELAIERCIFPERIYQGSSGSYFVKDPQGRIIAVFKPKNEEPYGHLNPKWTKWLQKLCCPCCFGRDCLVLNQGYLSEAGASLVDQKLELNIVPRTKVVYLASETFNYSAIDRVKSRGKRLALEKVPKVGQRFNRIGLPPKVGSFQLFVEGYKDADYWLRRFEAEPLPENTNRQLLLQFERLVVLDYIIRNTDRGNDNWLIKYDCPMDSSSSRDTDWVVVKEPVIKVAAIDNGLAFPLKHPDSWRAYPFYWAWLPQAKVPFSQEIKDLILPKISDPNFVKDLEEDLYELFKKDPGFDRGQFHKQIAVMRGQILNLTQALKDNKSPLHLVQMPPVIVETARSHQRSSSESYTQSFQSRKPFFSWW

Regarding `Cc1ccccc1-n1c(Cn2cnc3c(N)ncnc32)nc2cccc(C)c2c1=O` [IC87114], the IC50 on PI4P5KIα [1], at PI4KIIα, at PI4KIIIα, at PI5P4KIIβ, on PI3KC2β and on PI3KC2α was over 100 µM throughout. The concentration for half-maximal inhibition (IC50) at ATR, in the assay on PI4P5KIα [2], on hsVPS34, at PI4KIIIβ, at DNA-PK and at ATM was over 100 µM throughout. For the same compound, the IC50 on mTORC1, on PI3KC2γ and on mTORC2 was over 100 µM in each case. Also, the “Foxp3 induction at 1 μM” value in assay [3] (1 μM) is listed as 15%. Moreover, in [3] (IC-87114 down to 0.01 μM), the “increase in Foxp3 expressing cells over and above TCR deprivation alone” value is recorded as 10-15%.

Regarding `O=c1cc(N2CCOCC2)oc2c(-c3ccccc3)cccc12` [Ly294002, 2-(4-Morpholinyl)-8-phenyl-4H-1-benzopyran-4-one], the “S6 phosphorylation (pS6)” value in the assay with S6 ribosomal protein is listed as “completely removed”. Besides, in assay [3], the “number of cell divisions (CFSE)” value is recorded as “slight reduction”; the “% Foxp3+ cells, activation with anti-TCR only” value came out at 4%; the “% Foxp3+ cells, activation with anti-TCR + anti-CD28” value came out at 44%. Besides, in [3] (listed as LY294002), the “number of cell divisions (CFSE)” value was “slightly reduced”; the “% Foxp3+ cells, activation with anti-TCR only” value came to 4% Foxp3^+; the “% Foxp3+ cells, activation with anti-TCR + anti-CD28” value turned out to be 44% Foxp3^+. Further, the “percentage of cells expressing Foxp3” value in assay [3] (added 18 hours after activation with TCR signal deprivation, read within 24-48 hours) was found to be 26.9±11.4%. Besides, the “Foxp3 expression in control cultures, TCR signal deprived cultures subtracted” value in assay [3] (serum free AIM-V medium, without anti TGFβ and SB431542, 24-48 hours / 2 days) stood at 21.5±4.0%.
